Publication PMC11823609, “Advancements in the fight against globally distributed OXA-48 carbapenemase: evaluating the new generation of carbapenemase inhibitors” (Antimicrobial Agents and Chemotherapy, 2025)
Values after ≈ are worked out from the molar mass of the structure shown. Where two headings read alike, the source gives them in different places.

Experiments:
Assay in all cases: microbe, parasite or virus in culture
[1] = test system: E. coli TG1; assay type: cell-based; details: Escherichia coli
Description: (§1) The MICs of each of the individual compounds (antibiotics or inhibitors) were also determined. The MICs were determined for the E. coli isogenic expressing OXA-48 (and both OXA-48 and CTX-M-14) to assess their activity against the carbapenemase; MICs were also determined for the 18 Enterobacterales clinical isolates in order to evaluate the new inhibitors against also their resistance concomitant mechanisms. The MICs were determined in triplicate experiments, and the EUCAST 13.0 clinical breakpoints were followed (http://www.eucast.org/clinical_breakpoints).
(§2) For comparative evaluation of the activity of each inhibitor alone against the carbapenemase OXA-48, all inhibitors (at 4 mg/L) were tested in the presence of a carbapenem (ertapenem, adequate substrate) and a cephalosporin (ceftazidime, poor substrate) as reporter substrates. This prevented any possible masking effect produced by the different partner antibiotics. These assays were also performed with isogenic transformants and clinical isolates.

[2] = test system: E. coli HB4 ΔompC/F (CTX-M-14 + OXA-48); assay type: cell-based, Escherichia coli
Excerpt: (§3) The E. coli HB4 strain was used to gain a more complete perspective, by evaluating the involvement in resistance of a low permeability background with the carbapenemase OXA-48, as well as coproduction of an ESBL and the carbapenemase; thus, the ESBL CTX-M-14 and OXA-48 were cloned together and separately into E. coli HB4. The characteristics of these strains and transformants are summarized in Table S1, and the cloning procedures are outlined in the supplemental methods.
as §1, §2

[3] = test system: E. coli HB4 ΔompC/F (CTX-M-14); assay type: cell-based, Escherichia coli
Excerpt: as §3, §1, §2

[4] = test system: E. coli HB4 ΔompC/F; assay type: cell-based, Escherichia coli
Excerpt: as §3, §1, §2

[5] = test system: E. cloacae strain 231 (MLST 171, No ESBL); assay type: cell-based; details: E. cloacae 231
Description: (§4) The efficacy of these new BLIs was also evaluated against 18 genetically diverse WGS-characterized collection of OXA-48-positive Enterobacterales recovered as part of the Carbapenem-resistant Enterobacterales Genome Database Project (https://genomes.cnag.cat/incredble) listed in Table S2 ([13]). Combinations of clinical isolates (five pairs of Klebsiella pneumoniae, two pairs of Enterobacter cloacae, and two pairs of E. coli) were chosen for analysis: (i) nine strains carrying ESBLs; and (ii) nine strains (genetically closer available strains) without ESBLs.
as §1, §2

[6] = test system: E. cloacae strain 235 (MLST 171, ESBL); assay type: cell-based
Description: as §4, §1, §2

[7] = test system: E. cloacae strain 272 (MLST 78, ESBL); assay type: cell-based
Description: as §4, §1, §2

[8] = test system: E. cloacae strain 281 (MLST 78, No ESBL); assay type: cell-based; details: E. cloacae 281
Description: as §4, §1, §2

[9] = test system: E. coli strain 103 (MLST 10, ESBL); assay type: cell-based
Description: as §4, §1, §2

[10] = test system: E. coli strain 177 (MLST 131, ESBL); assay type: cell-based
Description: as §4, §1, §2

[11] = test system: E. coli strain 224 (MLST 127, No ESBL); assay type: cell-based; details: E. coli 224
Description: as §4, §1, §2

[12] = test system: E. coli strain 264 (MLST 131, No ESBL); assay type: cell-based; details: E. coli 264
Description: as §4, §1, §2

[13] = test system: K. pneumoniae strain 125 (MLST 307, ESBL); assay type: cell-based
Description: as §4, §1, §2

[14] = test system: K. pneumoniae strain 170 (MLST 307, No ESBL); assay type: cell-based; details: K. pneumoniae 170
Description: as §4, §1, §2

[15] = test system: K. pneumoniae strain 19 (MLST 11, ESBL); assay type: cell-based
Description: as §4, §1, §2

[16] = test system: K. pneumoniae strain 194 (MLST 392, No ESBL); assay type: cell-based; details: K. pneumoniae 194
Description: as §4, §1, §2

[17] = test system: K. pneumoniae strain 23 (MLST 392, ESBL); assay type: cell-based
Description: as §4, §1, §2

[18] = test system: K. pneumoniae strain 237 (MLST 147, No ESBL); assay type: cell-based; details: K. pneumoniae 237
Description: as §4, §1, §2

[19] = test system: K. pneumoniae strain 238 (MLST 15, ESBL); assay type: cell-based
Description: as §4, §1, §2

[20] = test system: K. pneumoniae strain 413 (MLST 147, ESBL); assay type: cell-based
Description: as §4, §1, §2

[21] = test system: K. pneumoniae strain 497 (MLST 11, No ESBL); assay type: cell-based; details: K. pneumoniae 497
Description: as §4, §1, §2

[22] = test system: K. pneumoniae strain 71 (MLST 15, No ESBL); assay type: cell-based; details: K. pneumoniae 71
Description: as §4, §1, §2

[23] = ceftazidime alone or with BLI at 4 mg/L
[24] = Enterobacter cloacae, BL alone or BL/BLI: AVI, REL, TAN, DUR 4 mg/L, VAB, XER 8 mg/L, ZID, NAC 1:1, read-out: MIC
[25] = Escherichia coli, BL alone or BL/BLI: AVI, REL, TAN, DUR 4 mg/L, VAB, XER 8 mg/L, ZID, NAC 1:1, read-out: MIC
[26] = Klebsiella pneumoniae, BL alone or BL/BLI: AVI, REL, TAN, DUR 4 mg/L, VAB, XER 8 mg/L, ZID, NAC 1:1, read-out: MIC
[27] = Enterobacter cloacae, β-lactamase inhibitor alone, read-out: MIC
[28] = Escherichia coli, β-lactamase inhibitor alone, read-out: MIC
[29] = Klebsiella pneumoniae, β-lactamase inhibitor alone, read-out: MIC

CC(C)(O/N=C(\C(=O)N[C@@H]1C(=O)N2C(C(=O)[O-])=C(C[n+]3ccccc3)CS[C@H]12)c1csc(N)n1)C(=O)O [CAZ, ceftazidime]
MIC ([1]; BL alone or BL/BLI: AVI, REL, TAN, DUR 4 mg/L, VAB, XER 8 mg/L, ZID, NAC 1:1): 0.25 µg/mL (≈ 0.457 µM)
MIC [1, 23]: 0.12 µg/mL (≈ 0.22 µM)
MIC ([2]; E. coli HB4 ΔompC/F (CTX-M-14 + OXA-48), ceftazidime alone or with BLI at 4 mg/L): 16 µg/mL
MIC ([2]; Escherichia coli): 16 µg/mL (≈ 29.3 µM)
MIC ([3]; E. coli HB4 ΔompC/F (CTX-M-14), ceftazidime alone or with BLI at 4 mg/L): 16 µg/mL (≈ 29.3 µM)
MIC ([3]; Escherichia coli): 16 µg/mL (≈ 29.3 µM)
MIC ([4]; E. coli HB4 ΔompC/F, ceftazidime alone or with BLI at 4 mg/L): 1 µg/mL (≈ 1.83 µM)
MIC ([4]; Escherichia coli): 1 µg/mL (≈ 1.83 µM)
MIC [5, 23]: 1 µg/mL
MIC [5, 24]: 1 µg/mL
MIC ([6]; E. cloacae 235, ceftazidime alone or with BLI at 4 mg/L): 128 µg/mL
MIC ([6]; Enterobacter cloacae): 128 µg/mL
MIC ([7]; E. cloacae 272, ceftazidime alone or with BLI at 4 mg/L): ≥256 µg/mL
MIC ([7]; Enterobacter cloacae): ≥ 256 µg/mL
MIC [8, 23]: 0.5 µg/mL
MIC [8, 24]: 0.5 µg/mL
MIC ([9]; E. coli 103, ceftazidime alone or with BLI at 4 mg/L): 4 µg/mL
MIC ([9]; Escherichia coli): 4 µg/mL
MIC ([10]; E. coli 177, ceftazidime alone or with BLI at 4 mg/L): 128 µg/mL
MIC ([10]; Escherichia coli): 128 µg/mL
MIC [11, 23]: 0.25 µg/mL
MIC [11, 25]: 0.25 µg/mL
MIC [12, 23]: 0.25 µg/mL
MIC [12, 25]: 0.25 µg/mL
MIC ([13]; K. pneumoniae 125, ceftazidime alone or with BLI at 4 mg/L): 64 µg/mL
MIC ([13]; Klebsiella pneumoniae): 64 µg/mL
MIC [14, 23]: 0.5 µg/mL
MIC [14, 26]: 0.5 µg/mL
MIC ([15]; K. pneumoniae 19, ceftazidime alone or with BLI at 4 mg/L): 32 µg/mL
MIC ([15]; Klebsiella pneumoniae): 32 µg/mL
MIC [16, 23]: 0.5 µg/mL
MIC [16, 26]: 0.5 µg/mL
MIC ([17]; K. pneumoniae 23, ceftazidime alone or with BLI at 4 mg/L): 128 µg/mL
MIC ([17]; Klebsiella pneumoniae): 128 µg/mL
MIC [18, 23]: 0.25 µg/mL
MIC [18, 26]: 0.25 µg/mL
MIC ([19]; K. pneumoniae 238, ceftazidime alone or with BLI at 4 mg/L): 32 µg/mL
MIC ([19]; Klebsiella pneumoniae): 32 µg/mL
MIC ([20]; K. pneumoniae 413, ceftazidime alone or with BLI at 4 mg/L): 32 µg/mL
MIC ([20]; Klebsiella pneumoniae): 32 µg/mL
MIC [21, 23]: 0.5 µg/mL
MIC [21, 26]: 0.5 µg/mL
MIC [22, 23]: 0.5 µg/mL
MIC [22, 26]: 0.5 µg/mL

CC1=C[C@@H]2CN(C(=O)N2OS(=O)(=O)O)[C@@H]1C(N)=O [Durlobactam, durlobactam]
MIC ([1]; β-lactamase inhibitor alone): 0.12 µg/mL (≈ 0.433 µM)
MIC ([2]; Escherichia coli): 1 µg/mL (≈ 3.61 µM)
MIC ([3]; Escherichia coli): 1 µg/mL (≈ 3.61 µM)
MIC ([4]; Escherichia coli): 0.5 µg/mL (≈ 1.8 µM)
MIC [5, 27]: 1 µg/mL
MIC ([6]; Enterobacter cloacae): 4 µg/mL
MIC ([7]; Enterobacter cloacae): 1 µg/mL
MIC [8, 27]: 4 µg/mL
MIC ([9]; Escherichia coli): 0.25 µg/mL
MIC ([10]; Escherichia coli): 2 µg/mL
MIC [11, 28]: 0.25 µg/mL
MIC [12, 28]: 0.25 µg/mL
MIC ([13]; Klebsiella pneumoniae): 2 µg/mL
MIC [14, 29]: 0.5 µg/mL
MIC ([15]; Klebsiella pneumoniae): 2 µg/mL
MIC [16, 29]: 1 µg/mL
MIC ([17]; Klebsiella pneumoniae): 0.5 µg/mL
MIC [18, 29]: 0.5 µg/mL
MIC ([19]; Klebsiella pneumoniae): 0.5 µg/mL
MIC ([20]; Klebsiella pneumoniae): 4 µg/mL
MIC [21, 29]: 2 µg/mL
MIC [22, 29]: 2 µg/mL
